From patent US12433863B2, “Pharmaceutical compositions and uses directed to lysosomal storage disorders” (INTRABIO LIMITED, priority 2016, dated 2025)

Assays:
[1] = test system: Npc1^−/− (BALB/cNctr-Npc1^m1N/J) mouse; assay: In vivo mouse study in Npc1-/- mouse model of NPC (coat, weight, CatWalk gait, open field motor function, lifespan)
Experimental: Separate groups of Npc1^-/- and Npc1^+/+ mice were left untreated, as controls. […] Animals were weighed twice a week. Weights were averaged (mean) across all mice in each group and compared. Gait analysis was performed on mice at eight weeks of age using a CatWalk® 15.0 system according to manufacturer's instructions (Noldus, Nottingham, UK). Five runs were recorded per animal. CatWalk® parameters measured were: • 1. Stand Mean: average duration (s) of paws in contact with glass plate; • 2. Step Cycle: duration (s) between two consecutive contacts of the same paw; • 3. Duty Cycle: percentage of time paws in contact with plate compared with time to complete a step cycle; • 4. Step Sequence (AB): percentage of time spent walking in LF-RH-RF-LH alternating pattern (LF: left front; RH: right hind; RF: right front; LH left hind); • 5. Cadence: step per seconds in a trial; • 6. Diagonal Support: percentage of time with simultaneous contact of diagonal paws with the glass plate (RF&LH or RH&LF). Motor Function Analysis Motor function analysis was performed on mice at eight and nine weeks of age using an Open Field Activity Monitor according to manufacturer's instructions (Linton Instruments, Amlogger Software). Each mouse was placed in a plastic cage with bedding and analysed for five minutes. Rears were counted manually. Motor function parameters measured were: • 1. Centre Rearing: mice rearing on hind legs unsupported; • 2. Rearing: mice rearing on hind legs with and without the support of cage walls; • 3. Activity: regular movement of the animal including walks; • 4. Front to Back (FR) count: movement of the animal from front to back of the cage; • 5. Active Time: duration (s/min) of activeness regardless of movement; • 6. Mobile Time: duration (s/min) of mobility; • 7. Rearing Time: duration of any rearing.

[2] = test system: wild-type (Npc1^+/+) mice; assay: In vivo mouse study in wild-type (Npc1+/+) littermates (weight, gait, motor function)
Experimental: Wild-type (Npc1^+/+) littermates were used as a control.
Separate groups of Npc1^−/− and Npc1^+/+ mice were left untreated, as controls.
Animals were weighed twice a week. Weights were averaged (mean) across all mice in each group and compared.
Gait analysis was performed on mice at eight weeks of age using a CatWalk® 15.0 system according to manufacturer's instructions (Noldus, Nottingham, UK). Five runs were recorded per animal.
CatWalk® parameters measured were: • 1. Stand Mean: average duration (s) of paws in contact with glass plate; • 2. Step Cycle: duration (s) between two consecutive contacts of the same paw; • 3. Duty Cycle: percentage of time paws in contact with plate compared with time to complete a step cycle; • 4. Step Sequence (AB): percentage of time spent walking in LF-RH-RF-LH alternating pattern (LF: left front; RH: right hind; RF: right front; LH left hind); • 5. Cadence: step per seconds in a trial; • 6. Diagonal Support: percentage of time with simultaneous contact of diagonal paws with the glass plate (RF&LH or RH&LF). Motor Function Analysis
Motor function analysis was performed on mice at eight and nine weeks of age using an Open Field Activity Monitor according to manufacturer's instructions (Linton Instruments, Amlogger Software). Each mouse was placed in a plastic cage with bedding and analysed for five minutes. Rears were counted manually.
Motor function parameters measured were: • 1. Centre Rearing: mice rearing on hind legs unsupported; • 2. Rearing: mice rearing on hind legs with and without the support of cage walls; • 3. Activity: regular movement of the animal including walks; • 4. Front to Back (FR) count: movement of the animal from front to back of the cage; • 5. Active Time: duration (s/min) of activeness regardless of movement; • 6. Mobile Time: duration (s/min) of mobility; • 7. Rearing Time: duration of any rearing.

[3] = test system: patients with ataxia; conditions: Becker-Bense et al. 2015; cited from earlier work
[4] = test system: Tay-Sachs disease patient fibroblasts; assay: Glycosphingolipid (GSL) levels by HPLC in Tay-Sachs disease patient fibroblasts; format: cell-based, human; conditions: 1 mM for 6 days, p<0.05
[5] = test system: patients with cerebellar ataxia; conditions: cited from earlier work
[6] = test system: Hexb^−/− mouse (Sandhoff disease model); assay: Sandhoff disease mouse model (lifespan, bar crossing test, step cycle); format: in vivo
Experimental: This study made use of a mouse model of Sandhoff disease, the Hexb^−/− mouse, as described in Jeyakumar et al. (Jeyakumar, M. et al. (1999) Proc. Natl. Acad. Sci. USA 96: 6388-6393).
Wild-type (Hexb^+/+) mice were used as controls.
In FIG. 7A, acetyl-leucine-treated mice were treated with 0.1 g/kg acetyl-leucine from 3 weeks of age. The asterisks (*) indicates a p-value of <0.05 vs untreated Sandhoff mice. Data is average of n=6 mice per group. Without treatment, the median survival time of Sandhoff mice was 112 days. Treatment with acetyl-leucine (0.1 g/kg body weight since 3 weeks of age) increased the median lifespan to 120 days.
The bar crossing test is a method for assessing motor function in mice in which the mouse is placed hanging from the centre of a horizontal bar by its front limbs. A wild-type mouse with normal motor function will be able to engage its hind limbs and thereby move to one of the platforms at either end of the bar, and in doing so complete the test.
An untreated Sandhoff mouse is able to complete the test up until around 11 weeks of age. After this point motor function and hind-limb mobility/engagement have deteriorated to the point to which the mouse cannot complete the test, and will drop from the bar onto the padded surface below.
Step cycle is the length of time taken during locomotion by a limb from the time it leaves the ground until it leaves the ground on the next occasion.
Step cycle time was assessed at 12 weeks of age in untreated and acetyl-leucine treated Sandhoff model mice. Acetyl-leucine treatment constituted 0.1 g/kg body weight acetyl-leucine from 3 weeks of age.

CC(=O)NC(CC(C)C)C(=O)O (racemic) [acetyl-DL-leucine]
Delay until display of disease symptoms versus untreated Npc1-/- mice ([1]; Npc1-/- mice treated from weaning): two
Delay of weight loss symptoms compared to the untreated group ([1]; Npc1-/- mice, 0.1 g/kg from weaning): two
Gait properties (CatWalk) compared to untreated littermates ([1]; Npc1-/- mice, 0.1 g/kg from weaning, eight weeks of age): significantly improved gait
Motor function properties (Open Field Activity Monitor) compared to untreated littermates ([1]; Npc1-/- mice, 0.1 g/kg from weaning, nine weeks of age): significantly improved motor function
Coat condition ([1]; Npc1-/- mice, 0.1 g/kg in chow from weaning, nine weeks of age): smooth and glossy coat
Lifespan ([1]; Npc1-/- mouse, 0.1 g/kg from 3 weeks of age): small but statistically significant increase in lifespan
Effect on weight gain ([2]; 0.1 g/kg from weaning, three to 10 weeks of age): no significant effect
Gait properties versus untreated littermates ([2]; 0.1 g/kg, eight weeks of age): no significant difference
Motor function properties versus untreated littermates ([2]; 0.1 g/kg, nine weeks of age): no significant difference
Brain metabolism by PET [3]: increased metabolism in the midbrain and lower brainstem in responders
GSL levels (GSL storage) [4]: decrease was statistically significant
Benefit in cerebellar ataxia, another case series ([5]; Pelz et al. 2015): did not find benefit
Temporal gait variability, quantitative gait analysis ([5]; Schniepp et al. 2015): improved temporal gait variability
Cerebellar ataxia symptoms, case series ([5]; Strupp et al. 2013): symptomatic improvement of cerebellar ataxia
Average step cycle time ([6]; Sandhoff mice, 12 weeks of age, 0.1 g/kg from 3 weeks, p<0.001 vs untreated): significantly faster average step cycle times
Hind step cycle time ([6]; Sandhoff mice, 12 weeks of age, 0.1 g/kg from 3 weeks, p<0.01 vs untreated): significantly faster hind step cycle times
Front step cycle time ([6]; Sandhoff mice, 12 weeks of age, 0.1 g/kg from 3 weeks, p<0.05 vs untreated): significantly faster front step cycle times
Motor function assessed via the bar-crossing test ([6]; Sandhoff mouse model, 0.1 g/kg body weight from 3 weeks of age): improved motor function and hind-limb mobility/engagement
Lifespan versus untreated Sandhoff mice ([6]; Sandhoff mouse, 0.1 g/kg from 3 weeks of age, p<0.05): statistically significant increase in the lifespan
